tested on: Wnt signaling; assay: Wnt-Luc reporter assay for pathway inhibition of Wnt signaling; type: cell-based, Mouse (TM3 Wnt-Luc cells) or Human (293 Wnt-Luc cells); settings: 24 h, Wnt-Luc reporter cells co-cultured with L-cell Wnt3a cells, luciferase luminescence reduced by 50%
Source text: The exemplified compounds of the invention are summarized in Table 1, with IC50 values measured using Wnt-Luc reporter assays.

Row | Structure (SMILES) | IC50
1 | Cc1cc(CC(=O)Nc2ccc(-c3cccc(F)c3)cn2)cnc1-c1ccnnc1 [Cpd 74] | < 0.1 nM
2 | Cc1cc(-c2ccc(CC(=O)Nc3ccc(-c4ccccc4)cn3)cn2)ccn1 [compound 51] | < 0.14 nM
3 | Cc1cc(-c2ccc(CC(=O)Nc3ccc(-c4cccc(F)c4)cn3)cc2)ccn1 [compound 56] | < 0.09 nM
4 | Cc1cc(-c2ccc(CC(=O)Nc3ccc(-c4ccccc4)nc3)cc2)ccn1 [compound 36] | < 0.11 nM
5 | Cc1cc(-c2ccc(CC(=O)Nc3ccc(-c4ccccc4)cn3)cc2)ccn1 [Cpd 26] | < 0.4 nM
6 | Cc1cc(-c2ccc(CC(=O)Nc3ccc(-c4cccnc4)cc3)cc2)ccn1 [compound 59] | < 0.11 nM
7 | Cc1cc(-c2ncc(CC(=O)Nc3ccc(-c4cnccn4)cn3)cc2C)ccn1 [Cpd 86] | 0.38 nM

From patent publication US10251893B2 (NOVARTIS AG, priority 2009, dated 2019)
